Reference: US20160137639A1, “TRIAZOLE-ISOXAZOLE COMPOUND AND MEDICAL USE THEREOF” (JAPAN TOBACCO INC., priority 2012, published 2016)
Read-outs that look alike come from different tables or passages of the source.

How the values were obtained:
human RORγ = target: T1, human RORγ (Homo sapiens, UniProt P51449); assay: Luciferase reporter gene assay of inhibitory effect against RORγ transcriptional activity (GAL4-hRORγ plasmid in CHO cells); assay type: cell-based
T1 construct: human, NM_005060.3 and from Ser253 to Lys518; expressed in transfected cells; host or cells: CHO cells (transient co-transfection with pG5-Luc reporter)
T1 sequence (P51449 253-518): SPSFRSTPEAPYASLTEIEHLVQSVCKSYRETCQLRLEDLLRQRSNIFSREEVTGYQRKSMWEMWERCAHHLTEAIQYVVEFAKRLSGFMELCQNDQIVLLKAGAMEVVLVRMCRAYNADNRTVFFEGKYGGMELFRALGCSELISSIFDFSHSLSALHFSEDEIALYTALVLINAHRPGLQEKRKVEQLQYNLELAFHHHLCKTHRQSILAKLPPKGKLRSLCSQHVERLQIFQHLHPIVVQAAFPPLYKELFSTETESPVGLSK
Procedure: (§1) In vitro assay of inhibitory effect against RORγ transcriptional activity
(§2) Inhibitory effect of test article on transcriptional activity of RORγ was measured by means of the following luciferase reporter gene assay.
(§3) A cDNA encoding human and mouse RORγ ligand binding domain (LBD) were obtained based on the reported sequences (Genebank accession number and sequence: human, NM_005060.3 and from Ser253 to Lys518; mouse, NM_011281.2 and from Ile251 to Lys516).
(§4) The cDNA of human RORγ or mouse RORγ was inserted into pFA-CMV vector (Strategene), which expresses GAL4-DNA binding domain fusion protein.
(§5) The resulting plasmids are hereinafter referred to as GAL4-hRORγ plasmid and GAL4-mRORγ plasmid, respectively.
(§6) Human or mouse GAL4-RORγ plasmid was transiently co-transfected into Chinese hamster ovary cells (CHO cells) with […] plasmid, a reporter plasmid expressing firefly luciferase depending on GAL4.
(§7) TransIT CHO transfection reagent (Mirus) was used to co-transfect human or mouse GAL4-RORγ plasmid into CHO cells with pG5-Luc plasmid.
(§8) One day before the assay, CHO cells were suspended in HAM F-12 Nutrient medium containing 10 v/v % fetal bovine serum and seeded at 6×10^6 cells per 175 cm^2 cell culture flask.
(§9) Fifty four micro litters of Transit-CHO reagent was added into a 15 ml tube containing 1.16 ml of HAM F-12 Nutrient medium without fetal bovine serum and incubated at room temperature for 10 min.
A total 36 uL plasmid solution containing the GAL4-hRORγ plasmid (400 ng), pG5-Luc plasmid (9000 ng) and pcDNA3 plasmid (8600 ng) were added into the tube and mixed gently.
(§10) The mixture was incubated at room temperature for 10 min.
(§11) Nine micro litters of CHO Mojo Reagent was then added into each tube and mixed gently. The mixture was incubated at room temperature for 10 min.
(§12) The resultant transfection reagent was applied to the cell culture.
(§13) After incubation at 37° C., 5% CO2 for 4 hr, the transfected CHO cells were harvested by a trypsin treatment.
(§14) The collected cells were resuspended in HAM F-12 Nutrient medium supplemented with 10 v/v % fetal bovine serum and plated into a 384-well-white plate at 8,000 cells/50 uL/well.
(§15) The plate was incubated at room temperature for 1 hour and then further incubated at 37° C., 5% CO2 for 3 hours.
(§16) The test articles were dissolved in dimethylsulfoxide (DMSO) to obtain a concentration of 10 mmol/L. The resulting solution was diluted with the medium just before use and added to the cells in the plate to prepare 8 different concentrations of the test article.
(§17) The final concentration of DMSO was 0.1 v/v % After the addition of the test articles, the cells were incubated at 37° C., 5% CO2 for 2 days.
(§18) RORγ transcriptional activity was detected as the intracellular luciferase activity using SteadyLite HTS Reporter Gene Assay System (Perkin Elmer).
(§19) StedyLite Reagent was diluted five-fold into a solution containing 10 mM Tricine, 0.2% w/v BSA, 0.02% v/v Tween-20 to obtain the luciferase substrate solution.
(§20) After the measurement of the cell viability using Resazurin, the culture media in the 384 well-plate were removed. Then the Luc substrate solution was added into each well.
(§21) After the incubation at room temperature for 10 minutes, luminescence of each well was measured by a microplate reader.
(§22) The luciferase activity derived from the luminescence count in the vehicle-control well treated with 0.1% DMSO alone was defined as 100%, and the luciferase activity in the test article was calculated as a percentage (%-of-control) based on the value of the vehicle-control.
(§23) EC50 value of test article was calculated by curve fitting with GraphPad Prism.
(§24) The luminescence counts at the concentration of the test article where the cytotoxicity was observed were excluded from the data analysis.

mouse RORγ = target: T2, mouse RORγ (Mus musculus, UniProt P51450); assay: Luciferase reporter gene assay of inhibitory effect against RORγ transcriptional activity (GAL4-mRORγ plasmid in CHO cells); assay type: cell-based
T2 construct: mouse, NM_011281.2 and from Ile251 to Lys516; expressed in transfected cells; host or cells: CHO cells (transient co-transfection with pG5-Luc reporter)
T2 sequence (P51450 251-516): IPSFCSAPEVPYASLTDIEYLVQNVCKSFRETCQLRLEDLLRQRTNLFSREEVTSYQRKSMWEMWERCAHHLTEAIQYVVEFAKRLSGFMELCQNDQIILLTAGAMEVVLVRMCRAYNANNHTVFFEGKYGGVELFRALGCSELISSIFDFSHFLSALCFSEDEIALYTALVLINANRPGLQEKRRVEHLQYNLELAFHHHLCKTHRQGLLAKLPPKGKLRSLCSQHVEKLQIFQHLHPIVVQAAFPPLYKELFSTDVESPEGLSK
Procedure: as §1, §2, §3, §4, §5, §6, §7, §8, §9, §10, §11, §12, §13, §14, §15, §16, §17, §18, §19, §20, §21, §22, §23, §24

Work on `CCn1c(CCC(=O)NC2CCCc3ccccc32)nnc1C1Cc2ccccc2C1` (centres unmarked) [Example F-10] yielded an EC50 (human RORγ; LUC EC50 (μM) hRORg) greater than 3 µM and an EC50 (mouse RORγ; LUC EC50 (μM) mRORg) greater than 3 µM.
`COc1cccc(NC(=O)CCc2nnc(CCC(C)C)n2C2CC2)c1C` [Example F-85] gave an EC50 (human RORγ; read-out: LUC EC50 (μM) hRORg) greater than 3 µM and an EC50 (mouse RORγ; read-out: LUC EC50 (μM) mRORg) greater than 3 µM.
`Cc1c(Cl)cccc1NC(=O)CC(CCO)c1nnc(CCCC(C)C)n1C1CC1` (racemic) [Example F-199] gave an EC50 (human RORγ; read-out: LUC EC50 (μM) hRORg) of less than 3 µM and an EC50 (mouse RORγ; read-out: LUC EC50 (μM) mRORg) of less than 3 µM.
Compound `Cc1ccc(NC(=O)[C@H]2CCC(=O)N(C)[C@@H]2c2nnc(CCCC(C)(C)C)n2C2CC2)c(C)c1` [Example F-322] has an EC50 (human RORγ; read-out: LUC EC50 (μM) hRORg) of less than 3 µM and an EC50 (mouse RORγ; read-out: LUC EC50 (μM) mRORg) of less than 3 µM.
In the case of `Cc1ccc(NC(=O)C[C@H](CCC(=O)O)c2noc(-c3cc(CC(C)C)nn3C)c2C2CC2)c(Cl)c1` [Example E-25], the EC50 (human RORγ; read-out: LUC EC50 (μM) hRORg) is reported as greater than 3 µM and the EC50 (mouse RORγ; read-out: LUC EC50 (μM) mRORg) is reported as less than 3 µM.
In the case of `Cc1c(Cl)cccc1NC(=O)CCc1nnc(CCCC(C)(C)C)n1C1CC1` [Example F-181], the EC50 (human RORγ; read-out: LUC EC50 (μM) hRORg) is reported as less than 3 µM and the EC50 (mouse RORγ; read-out: LUC EC50 (μM) mRORg) is reported as less than 3 µM.
`COC(C)(C)CCCc1nnc([C@H]2CN(C(C)=O)C[C@@H]2C(=O)Nc2ccc(C)cc2C)n1C1CC1` (racemic) [Example F-290] gave an EC50 (human RORγ; read-out: LUC EC50 (μM) hRORg) greater than 3 µM and an EC50 (mouse RORγ; read-out: LUC EC50 (μM) mRORg) greater than 3 µM.
Work on `Cc1ccc(NC(=O)C[C@H](CCC(=O)O)c2noc(-c3cc(C(F)(F)C(C)C)on3)c2C2CC2)c(Cl)c1` [Example E-20] yielded an EC50 (human RORγ; read-out: LUC EC50 (μM) hRORg) of less than 3 µM and an EC50 (mouse RORγ; read-out: LUC EC50 (μM) mRORg) of less than 3 µM.
In the case of `Cc1c(Cl)cccc1NC(=O)CCc1nnc(C#CC(C)C)n1C1CC1` [Example F-158], the EC50 (human RORγ; read-out: LUC EC50 (μM) hRORg) is reported as greater than 3 µM and the EC50 (mouse RORγ; read-out: LUC EC50 (μM) mRORg) is reported as less than 3 µM.
For `C=CCCCCc1onc(CCC(=O)Nc2cccc(C=C)c2)c1C1CC1` [Example F-738], the EC50 (human RORγ; read-out: LUC EC50 hRORg) was greater than 3 µM and the EC50 (mouse RORγ; read-out: LUC EC50 mRORg) was greater than 3 µM.
With `Cc1cccc(NC(=O)CCc2nnc(CCCC(C)C)n2C2CC2)c1C` [Example F-216] the EC50 (human RORγ; read-out: LUC EC50 (μM) hRORg) was less than 3 µM and the EC50 (mouse RORγ; read-out: LUC EC50 (μM) mRORg) was less than 3 µM.
`CC(C)CCc1nnc(CCC(=O)Nc2ccccc2C(C)C)n1C1CC1` [Example F-75] was tested, and the EC50 (human RORγ; read-out: LUC EC50 (μM) hRORg) was greater than 3 µM and the EC50 (mouse RORγ; read-out: LUC EC50 (μM) mRORg) was greater than 3 µM.
`CC(=O)c1ccc(NC(=O)C[C@H](CCC(=O)O)c2noc([C@H]3C[C@@H](CC(C)(C)CO)C3)c2C2CC2)c(Cl)c1` [Example F-731] showed an EC50 (human RORγ; read-out: LUC EC50 hRORg) greater than 3 µM and an EC50 (mouse RORγ; read-out: LUC EC50 mRORg) greater than 3 µM.
Compound `CC(=O)N1C[C@H](C(=O)Nc2ccc(C)cc2C)[C@@H](c2nnc(-c3ccc(C(C)C)cc3)n2C2CC2)C1` [Example F-371] has an EC50 (human RORγ; read-out: LUC EC50 (μM) hRORg) of less than 3 µM and an EC50 (mouse RORγ; read-out: LUC EC50 (μM) mRORg) of less than 3 µM.
In the case of `Cc1ccc(NC(=O)[C@H]2CN(CC(=O)N(C)C)C[C@@H]2c2nnc([C@H]3C[C@@H](CC(C)C)C3)n2C2CC2)c(C)c1` [Example F-656], the EC50 (human RORγ; read-out: LUC EC50 hRORg) is reported as less than 3 µM and the EC50 (mouse RORγ; read-out: LUC EC50 mRORg) is reported as less than 3 µM.
`O=C(CCc1nnc(C2Cc3ccccc3C2)[nH]1)Nc1cccc2ccccc12` [Example F-9] was tested, and the EC50 (human RORγ; read-out: LUC EC50 (μM) hRORg) was greater than 3 µM and the EC50 (mouse RORγ; read-out: LUC EC50 (μM) mRORg) was greater than 3 µM.
Work on `Cc1ccc(NC(=O)CC(CCN)c2nnc(CCCC(C)C)n2C2CC2)c(C)c1` (racemic) [Example F-273] yielded an EC50 (human RORγ; read-out: LUC EC50 (μM) hRORg) greater than 3 µM and an EC50 (mouse RORγ; read-out: LUC EC50 (μM) mRORg) greater than 3 µM.
In the case of `CC(C)CCc1nnc(CCC(=O)Nc2nnc3ccccn23)n1C1CC1` [Example F-139], the EC50 (human RORγ; read-out: LUC EC50 (μM) hRORg) is reported as greater than 3 µM and the EC50 (mouse RORγ; read-out: LUC EC50 (μM) mRORg) is reported as greater than 3 µM.
For `Cc1ccc(NC(=O)C[C@H](CNC(=O)CC#N)c2noc([C@H]3C[C@@H](CC(C)C)C3)c2C2CC2)c(C)c1` [Example F-647], the EC50 (human RORγ; read-out: LUC EC50 hRORg) was less than 3 µM and the EC50 (mouse RORγ; read-out: LUC EC50 mRORg) was less than 3 µM.
